Assay results: patent publication US8633177B2, “Nitroxyl (HNO) releasing compounds and uses thereof in treating diseases” (The United States of America, as represented by the …, priority 2010, dated 2014)
Read-outs that look alike come from different tables or passages of the source.

What was measured:
MCF-7 cells = test: MTT cell survival, MCF-7; type: cell-based, human; details: MTT assay
Description: (§1) MDA-MB-231, MCF-7 and MDA-MB-468, human breast carcinoma cell lines and MCF-10A, breast […] (American Type Culture Collection, Manassas, Va.) were grown as monolayers in RPMI 1640 supplemented with 10% FCS (Hyclone), penicillin (50 units/ml), streptomycin ([…]; Life Technologies, Inc., Grand Island, N.Y.) and endothelial growth media (Lonanza) respectively. Cells were seeded at a density of 1×10^6 cells/100-cm^2 culture dish and incubated at 37° C. in 5% CO2 and 80% relative humidity. Single-cell suspensions were obtained by trypsinization (0.05% trypsin/EDTA), and cells were counted using a Beckman cell counter.
(§2) 1000× stock solutions aspirin, of a DEA/NO-ASA, and IPA/NO-ASA were made in DMSO and final concentration in the media or PBS was adjusted to 0.1% DMSO.
(§3) The effect of NONO-aspirin on cell proliferation was studied using an MTT assay. The effect of DEA/NO-ASA, IPA/NO-ASA, aspirin, IPA/NO and DEA/NO was measured using the MTT assay. Cells were plated at a concentration of 8,000-10,000 cells per well in a 96 well plate and grown overnight. Cells were treated with different concentrations of the compounds and controls for 48 h. After 48 h, a solution of 5 mg/ml MTT was added to each well and incubated for 1 h. Then the media was removed from each well and 100 uL DMSO was added to each well and the absorbance was read at 550 nm. […]

caspase-3 [1] = test: Caspase-3 fluorescence assay, MDA-MB-468; type: cell-based, human; details: 12 h
Description: (§4) The caspase-3 activity in the presence of IPA/NO-ASA and DEA/NO-ASA was measured using caspase-3 fluorescence assay kit (Cat No. 10009135, Cayman Chemical). Cells were plated at a concentration of 50,000 cells per well in a 96 well plate and grown overnight. Then the cells were treated with different concentrations of the compounds and controls for 12 h. After 12 h, the plate was centrifuged at 800 g and the media was removed by aspiration. 100 μL of lysis buffer was added to each well and the plate was incubated for […] at room temperature. 100 μL of a caspase-3 substrate solution was added to each well and incubated for 30 min after which the fluorescence was read at excitation of 485 nm and emission of 535 nm.

[2] = tested on: carrageenan induced rat paw edema; test: Carrageenan induced rat paw edema assay; type: in vivo, Sprague-Dawley rats; details: for Anti-inflammatory Activity ID50: oral, 3 h after administration
Description: Anti-inflammatory properties were studied in vivo in a carrageenan induced rat paw edema assay after 3 h of administration of the compound orally to Sprague-Dawley rats.
To verify whether IPA/NO-aspirin and DEA/NO-aspirin retain the anti-inflammatory properties of their parent NSAID in vivo, aspirin, PA/NO-aspirin or DEA/NO-aspirin was administered to rats with paw edema induced by carrageenan.

A549 cells = test: Intracellular NO/HNO by DAF-FM diacetate in A549 cells; type: cell-based
Description: The intracellular NO and HNO were determined by using 4-amino-5-methylamino-2′,7′-difluorofluorescein diacetate (DAF-FM diacetate) as the reporter molecule. Cells were plated at a concentration of 30,000 cells per well in a 96 cell plate and grown overnight. Then DAF-FM diacetate in DMSO was added to each well with a final concentration of 10 μM and incubated for 30 min. Each well was washed three times with PBS pH 7.4. The desired compound was then added and the fluorescence was measured at an excitation of 485 nm and emission of 535 nm using PerkinElmer HTS 7000 plate reader.
Both NO and HNO increased the fluorescence of DAF. The NO/HNO release profiles for compounds 4 and 8 within A549 cells were determined by loading the cells with DAF-FM diacetate, a cell permeable dye, which is cleaved by esterase to form DAF-FM and reacts with NO to form benzotriazole derivative with an excitation of 495 nm and emission of 515 nm (Kojima et al., Chemical & Pharm. Bulletin, 462 373-75 (1998)). […] Both 4 and 8 show temporal release in the presence and absence of cells. […] Moreover, when DAF-FM diacetate is present both inside and outside the cells, the fluorescence intensity is ten times higher than that without cells.

[3] = target: T1, glyceraldehyde-3-phosphate dehydrogenase (GAPDH) (Homo sapiens, UniProt P04406); test: GAPDH activity, MDA-MB-468; type: cell-based; parameters: endogenous in cells; host or cells: MDA-MB-468; details: MDA-MB-468, 100 μM
Description: (§5) Cells were plated at a concentration of 30,000 cells per well and grown overnight. Cells were treated with 100 μM IPA/NO-aspirin and DEA/NO-aspirin for 1, 3, and 6 h after which 200 μL of KDalert lysis buffer was added to each well. The plate was incubated at 4° C. for 20 min to lyse the cells. 10 μL of cell lysate was transferred to a clean 96 well plate and 90 μL of KDalert mastermix was added to each well and the fluorescence was measured at excitation of 540 nm and emission of 570 nm.

caspase-3 [4] = test: Caspase-3 fluorescence assay, MCF-7; type: cell-based, human; details: 12 h
Description: as §4

HUVEC cells = test: Tube formation (angiogenesis) on Matrigel; type: cell-based; details: 12 h, even at 1 μM, compared to control
Description: To determine the effect of NO and HNO releasing aspirin on angiogenesis, HUVEC cells were treated with the compounds and tube formation was studied after 12 h. Matrigel (50 μL) was added to each well in a 96 well plate and incubated for 2 h at 37° C. Cell suspension treated with different concentrations of IPA/NO-aspirin, DEA/NO-aspirin and controls was added to each well at a concentration of 20,000 cells per well. After 12 hours, tube formation was measured using a microscope.

[5] = target: T1, glyceraldehyde-3-phosphate dehydrogenase (GAPDH); test: GAPDH activity, MCF-7; type: cell-based; parameters: endogenous in cells; host or cells: MDA-MB-231, MDA-MB-468, MCF-7, MCF-10A; details: MCF-7, 100 μM
Description: as §5

[6] = NO quantified by chemiluminescence during hydrolysis; type: physicochemical; details: 1 mM ferricyanide solution
Description: In addition to HNO measurements as described above by reductive nitrosylation of metmyoglobin, NO was quantified by chemiluminescence assay, N2O by gas chromatography, and nitrite ion by the Griess assay.
Detection of HNO was also carried out using the chemiluminescence method in, 1 mM ferricyanide solution.

MB-468 cells = test: MTT cell survival, MDA-MB-468; type: cell-based, human; details: MTT assay
Description: as §1, §2, §3

T1 sequence (P04406 whole entry): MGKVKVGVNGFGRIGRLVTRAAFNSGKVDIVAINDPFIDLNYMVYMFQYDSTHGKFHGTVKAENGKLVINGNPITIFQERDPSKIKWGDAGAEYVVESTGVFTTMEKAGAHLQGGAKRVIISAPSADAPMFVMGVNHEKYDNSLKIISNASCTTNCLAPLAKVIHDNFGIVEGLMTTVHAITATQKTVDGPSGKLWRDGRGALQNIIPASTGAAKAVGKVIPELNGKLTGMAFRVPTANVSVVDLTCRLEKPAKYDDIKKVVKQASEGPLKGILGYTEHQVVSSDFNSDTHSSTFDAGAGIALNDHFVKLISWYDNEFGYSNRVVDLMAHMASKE

| Structure (SMILES) | IC50 (MCF-7 cells) [µM] | Caspase-3 Activity (caspase-3 [1]; MDA-MB-468, 25 μM) [U/mL] | Caspase-3 Activity (caspase-3 [1]; MDA-MB-468, 50 μM) [U/mL] | Caspase-3 Activity (caspase-3 [1]; MDA-MB-468, 100 μM) [U/mL] | Anti-inflammatory Activity ID50 [2] [mg/kg] | cell penetration (A549 cells) | GAPDH Activity ([3]; 1 h) [U/mL] | GAPDH Activity ([3]; 3 h) [U/mL] | GAPDH Activity ([3]; 6 h) [U/mL] | Caspase-3 Activity (caspase-3 [4]; MCF-7, 25 μM) [U/mL] | Caspase-3 Activity (caspase-3 [4]; MCF-7, 50 μM) [U/mL] | Caspase-3 Activity (caspase-3 [4]; MCF-7, 100 μM) [U/mL] | angiogenesis (tube formation) (HUVEC cells) | GAPDH Activity ([5]; 1 h) [U/mL] | GAPDH Activity ([5]; 3 h) [U/mL] | GAPDH Activity ([5]; 6 h) [U/mL] | NO/HNO release by chemiluminescence [6] | IC50 (MB-468 cells) [µM] | other results |
| --- | --- | --- | --- | --- | --- | --- | --- | --- | --- | --- | --- | --- | --- | --- | --- | --- | --- | --- | --- |
| CC(=O)Oc1ccccc1C(=O)OCON=[N+]([O-])NC(C)C [IPA/NO-aspirin, O^2-(Acetylsalicyloyloxymethyl)-1-(N-isopropylamino)-diazen-1-ium-1,2-diolate] | 90 | 0.60 | 0.60 | 0.50 | 121.3 | permeated the cell membrane with minimal decomposition | <0.010 | <0.010 | <0.010 | 0.30 | 0.60 | 0.58 | reduced angiogenesis | <0.010 | <0.010 | <0.010 | showed both NO and HNO release | 80 | cell penetration (A549 cells; listed as 4): penetrate the cells |
| CCN(CC)[N+]([O-])=NOCOC(=O)c1ccccc1OC(C)=O [DEA/NO-aspirin, O^2-(Acetylsalicyloyloxymethyl)-1-(N,N-Diethylamino)-diazen-1-ium-1,2-diolate] | 120 | 0.40 | 0.38 | 0.81 | 168.6 | permeated the cell membrane with minimal decomposition | 0.060 | 0.065 | 0.050 | 0.30 | 0.35 | 0.27 | reduced angiogenesis | 0.080 | 0.110 | 0.130 | shows NO release | 85 | potency relative to aspirin ([2]; less potent than parent drug): 1.3 times; cell penetration (A549 cells; listed as 8): penetrate the cells |
